Measurements as given in patent US20240300886A1, “ARYLCYCLOHEXYLAMINE DERIVATIVES AND THEIR USE IN THE TREATMENT OF PSYCHIATRIC DISORDERS” (GILGAMESH PHARMACEUTICALS, INC., priority 2021, published 2024).
Like-named read-outs stand apart in the source and are kept apart here.

Columns and labels:
[1] = Metabolic stability in Gottingen minipig liver microsomes (MPLM); assay type: in vitro ADME, Gottingen minipigs; settings: pooled minipig liver microsomes, pH 7.4, 1 μM compound, 0.50 mg protein/mL, NADPH
Method: MPLM Stability. Pooled MPLM from Gottingen minipigs (Xenotech Z6000) were used. Microsomal incubations were carried out in multi-well plates. Liver microsomal incubation medium consisted of PBS (100 mM pH 7.4), MgCl2 (1 mM), and NADPH (1 mM), with 0.50 mg of liver microsomal protein per mL. Control incubations were performed by replacing the NADPH-cofactor system with PBS. Test compounds (1 μM, final solvent concentration 1.0%) were incubated with microsomes at 37° C. with constant shaking. Six time points over 60 minutes were analyzed, with 60 μL aliquots of the reaction mixture being drawn at each time point. The reaction aliquots were stopped by adding 180 μL of cold (4° C.) acetonitrile containing 200 ng/mL tolbutamide and 200 ng/mL labetalol as internal standards (IS), followed by shaking for 10 minutes, and then protein sedimentation by centrifugation at 4,000 rpm for 20 minutes at 4° C. Supernatant samples (80 μL) were diluted with water (240 μL) and analyzed for parent compound remaining using a fit-for-purpose liquid chromatography-tandem mass spectrometry (LC-MS/MS) method.
Data Analysis. The elimination constant (kel), half-life (t1/2) and intrinsic clearance (Clint) were determined in a plot of […] versus time, using linear regression analysis.

[2] = Comparative metabolism/PK of 2R and deuterated 7R in rats after oral administration; assay type: in vivo, Sprague Dawley rats; settings: for concentration at 0.083 h / concentration at 0.25 h / concentration at 0.5 h / concentration at 1 h / concentration at 2 h / concentration at 4 h: oral
Method: (§1) Animals. Male Sprague Dawley rats were used in these studies. Animals were randomly assigned to treatment groups and were fasted for 4 h before dosing.
Drugs. Test compounds 2R and 7R were dissolved in a vehicle consisting of normal saline. They were then administered orally (po) at a dose of 10 mg/kg (calculated based on freebase), and at a volume of 5 mL/kg body weight.
(§2) Sample Collection and Bioanalysis. Blood samples (approximately 60 μL) were collected under light isoflurane anesthesia (Surgivet®) from the retro orbital plexus at 0.08, 0.25, 0.5, 1, 2, 4, 8, and 24 h (4 animals per time point). Immediately after blood collection, plasma was harvested by centrifugation at 4,000 rpm for 10 min at 4° C. and samples were stored at −70±10° C. until bioanalysis. Following blood collection, animals were immediately sacrificed, the abdominal vena-cava was cut open, and the whole body was perfused from the heart using 10 mL of normal saline, and brain samples were collected from all animals. After isolation, brain samples were rinsed three times in ice-cold normal saline (for 5-10 seconds/rinse using ˜5-10 mL normal saline in disposable petri dish for each rinse) and dried on blotting paper. Brain samples were homogenized using ice-cold phosphate-buffered saline (pH 7.4) Total homogenate volume was three times the tissue weight. All homogenates were stored at −70±10° C. until bioanalysis. For bioanalysis, 25 μL aliquots of plasma/brain study samples or spiked plasma/brain calibration standards were added to individual pre-labeled micro-centrifuge tubes followed by 100 μL of an internal standard solution (glipizide, 500 ng/mL in acetonitrile) except for blanks, where 100 μL of acetonitrile was added. Samples were vortexed for 5 minutes and then centrifuged for 10 minutes at 4,000 rpm at 4° C. Following centrifugation, 100 μL of each clear supernatant was transferred to a 96 well plate and analyzed with a fit-for-purpose LC-MS/MS method, with authentic samples of each analyte used for calibration and identification. Concentrations of parent compound (2R or 7R) and metabolite 1R were determined in all samples.
(§3) Data Analysis. Pharmacokinetic parameters were estimated using the non-compartmental analysis tool of Phoenix® WinNonlin software (Ver 8.0).

[3] = Oral bioavailability in rats, Method B (plasma and brain PK); assay type: in vivo, Sprague Dawley rats; settings: Method B; for half-life / Cmax / AUC(0-inf): male, Sprague Dawley; for F: 1 mg/kg
Method: as §1
Drugs. Test compounds were dissolved in a vehicle consisting of normal saline (for compounds used as the HCl salt) or normal saline slightly acidified with aq. HCl (for freebase compounds). They were then administered intravenously (iv) or orally (po) at a dose of […] (calculated based on freebase), as indicated, and at a volume of 5 mL/kg body weight. Compounds were tested as the racemates or pure enantiomers, as indicated.
as §2, with “˜-5-10” for “˜5-10”, “7.4).” for “7.4)”, “identification.” for “identification. Concentrations of parent compound (2R or 7R) and metabolite 1R were determined in all samples.”
as §3

[4] = rat brain after 10 mg/kg po of 2R or 7R, parent or metabolite 1R as labelled, listed as 1R as metabolite of 2R
[5] = rat brain after 10 mg/kg po of 2R or 7R, parent or metabolite 1R as labelled, listed as 1R as metabolite of 7R
[6] = rat plasma after 10 mg/kg po of 2R or 7R, parent or metabolite 1R as labelled, listed as 1R as metabolite of 7R

## CNC1(c2ccccc2Cl)CCCCC1=O (racemic) [racemic ketamine, ketamine]
[1]
  half-life at 1 μM: 0.107 h
  microsomal CLint at 1 μM: 218 µL/min/mg

## N[C@@]1(c2ccc(F)cc2)CCCCC1=O [Compound 1R, (R)-2-amino-2-(4-fluorophenyl)cyclohexan-1-one]
[2]; male, Sprague Dawley, rat, brain, 10 mg/kg, rat brain, 0.083 h after 10 mg/kg po of 2R or 7R, read-out: Mean brain concentration
  concentration at 0.083 h: 56 ng/g
[2]; male, Sprague Dawley, rat, brain, 10 mg/kg, rat brain, 0.25 h after 10 mg/kg po of 2R or 7R, read-out: Mean brain concentration
  concentration at 0.25 h: 1470 ng/g
[2]; male, Sprague Dawley, rat, brain, 10 mg/kg, rat brain, 0.5 h after 10 mg/kg po of 2R or 7R, read-out: Mean brain concentration
  concentration at 0.5 h: 3200 ng/g
[2]; male, Sprague Dawley, rat, brain, 10 mg/kg, rat brain, 1 h after 10 mg/kg po of 2R or 7R, read-out: Mean brain concentration
  concentration at 1 h: 3500 ng/g
[2]; male, Sprague Dawley, rat, brain, 10 mg/kg, rat brain, 2 h after 10 mg/kg po of 2R or 7R, read-out: Mean brain concentration
  concentration at 2 h: 2670 ng/g
[2]; male, Sprague Dawley, rat, brain, 10 mg/kg, rat brain, 4 h after 10 mg/kg po of 2R or 7R, read-out: Mean brain concentration
  concentration at 4 h: 1610 ng/g
[2]; male, Sprague Dawley, rat, brain, po, 10 mg/kg, rat brain after 10 mg/kg po of 2R or 7R, parent or metabolite 1R as labelled, read-out: t1/2 (brain)
  half-life: 2.02 h
[2]; male, Sprague Dawley, rat, plasma, 10 mg/kg, rat plasma, 0.083 h after 10 mg/kg po of 2R or 7R, read-out: Mean plasma concentration
  concentration at 0.083 h: 31 ng/mL
[2]; male, Sprague Dawley, rat, plasma, 10 mg/kg, rat plasma, 0.25 h after 10 mg/kg po of 2R or 7R, read-out: Mean plasma concentration
  concentration at 0.25 h: 889 ng/mL
[2]; male, Sprague Dawley, rat, plasma, 10 mg/kg, rat plasma, 0.5 h after 10 mg/kg po of 2R or 7R, read-out: Mean plasma concentration
  concentration at 0.5 h: 1700 ng/mL
[2]; male, Sprague Dawley, rat, plasma, 10 mg/kg, rat plasma, 1 h after 10 mg/kg po of 2R or 7R, read-out: Mean plasma concentration
  concentration at 1 h: 2110 ng/mL
[2]; male, Sprague Dawley, rat, plasma, 10 mg/kg, rat plasma, 2 h after 10 mg/kg po of 2R or 7R, read-out: Mean plasma concentration
  concentration at 2 h: 1410 ng/mL
[2]; male, Sprague Dawley, rat, plasma, 10 mg/kg, rat plasma, 4 h after 10 mg/kg po of 2R or 7R, read-out: Mean plasma concentration
  concentration at 4 h: 690 ng/mL
[2]; male, Sprague Dawley, rat, plasma, po, 10 mg/kg, rat plasma after 10 mg/kg po of 2R or 7R, parent or metabolite 1R as labelled
  Cmax: 2110 ng/mL
[2]; male, Sprague Dawley, rat, plasma, po, 10 mg/kg, rat plasma after 10 mg/kg po of 2R or 7R, parent or metabolite 1R as labelled, read-out: AUC0-last (plasma) (converted)
  AUC(0-t): 8630 ng·h/mL
[2]; male, Sprague Dawley, rat, plasma, po, 10 mg/kg, rat plasma after 10 mg/kg po of 2R or 7R, parent or metabolite 1R as labelled, read-out: t1/2 (plasma)
  half-life: 3.03 h
[2]; [4]
  AUC0-last (brain): 820350 ng·min/g
  Cmax (brain): 3502 ng/g
[2]; [5]
  AUC0-last (brain): 912802 ng·min/g
  Cmax (brain): 2335 ng/g
  t1/2 (brain): 3.08 h
[2]; rat brain, 0.083 h after 10 mg/kg po of 2R or 7R, listed as 1R as metabolite of 7R
  Mean brain concentration: 59 ng/g
[2]; rat brain, 0.25 h after 10 mg/kg po of 2R or 7R, listed as 1R as metabolite of 7R
  Mean brain concentration: 1233 ng/g
[2]; rat brain, 0.5 h after 10 mg/kg po of 2R or 7R, listed as 1R as metabolite of 7R
  Mean brain concentration: 1623 ng/g
[2]; rat brain, 1 h after 10 mg/kg po of 2R or 7R, listed as 1R as metabolite of 7R
  Mean brain concentration: 2075 ng/g
[2]; rat brain, 2 h after 10 mg/kg po of 2R or 7R, listed as 1R as metabolite of 7R
  Mean brain concentration: 2335 ng/g
[2]; rat brain, 4 h after 10 mg/kg po of 2R or 7R, listed as 1R as metabolite of 7R
  Mean brain concentration: 1176 ng/g
[2]; [6]
  AUC0-last (plasma): 503548 ng·min/mL
  Cmax (plasma): 1564 ng/mL
[2]; rat plasma, 0.083 h after 10 mg/kg po of 2R or 7R, listed as 1R as metabolite of 7R
  Mean plasma concentration: 16 ng/mL
[2]; rat plasma, 0.25 h after 10 mg/kg po of 2R or 7R, listed as 1R as metabolite of 7R
  Mean plasma concentration: 525 ng/mL
[2]; rat plasma, 0.5 h after 10 mg/kg po of 2R or 7R, listed as 1R as metabolite of 7R
  Mean plasma concentration: 960 ng/mL
[2]; rat plasma, 1 h after 10 mg/kg po of 2R or 7R, listed as 1R as metabolite of 7R
  Mean plasma concentration: 1360 ng/mL
[2]; rat plasma, 2 h after 10 mg/kg po of 2R or 7R, listed as 1R as metabolite of 7R
  Mean plasma concentration: 1564 ng/mL
[2]; rat plasma, 4 h after 10 mg/kg po of 2R or 7R, listed as 1R as metabolite of 7R
  Mean plasma concentration: 705 ng/mL

## N[C@]1(c2ccc(F)cc2)CCCCC1=O [Compound 1S, (S)-2-amino-2-(4-fluorophenyl)cyclohexan-1-one]
[3]; rat brain, 1 mg/kg iv, read-out: t1/2 (iv)
  half-life: 4.09 h
[3]; rat brain, 1 mg/kg po
  Cmax: 167 ng/g
[3]; rat brain, 1 mg/kg po, read-out: t1/2 (po)
  half-life: 7.11 h
[3]; rat plasma, 1 mg/kg iv, read-out: t1/2 (iv)
  half-life: 2.58 h
[3]; rat plasma, 1 mg/kg iv, values represent AUC0-last, read-out: AUC0-inf (iv) (converted)
  AUC(0-inf): 805 ng·h/mL
[3]; rat plasma, 1 mg/kg po
  Cmax: 234 ng/mL
[3]; rat plasma, 1 mg/kg po, read-out: t1/2 (po)
  half-life: 3.88 h
[3]; rat plasma, 1 mg/kg po, values represent AUC0-last, read-out: AUC0-inf (po) (converted)
  AUC(0-inf): 1140 ng·h/mL
[3]; rat brain, 1 mg/kg iv, values represent AUC0-last
  AUC0-inf (iv): 126462 ng·min/g
[3]; rat brain, 1 mg/kg po, values represent AUC0-last
  AUC0-inf (po): 79272.6 ng·min/g
[3]; rat brain, calculated based on brain exposure (AUC0-last)
  F: 62.7%
[3]; rat plasma, based on AUC0-last
  F: >100%
[1]
  half-life at 1 μM: > 2.42 h
  microsomal CLint at 1 μM: < 9.6 µL/min/mg

## N[C@]1(c2cccc(F)c2)CCCCC1=O [Compound 3S]
[1]
  half-life at 1 μM: > 2.42 h
  microsomal CLint at 1 μM: < 9.6 µL/min/mg
